Measurements from paper PMC7714403 (JCI Insight, 2020).

How the values were obtained:
[1] = molecular target: FLT3 ITD (Homo sapiens, UniProt P36888, ITD); experiment: KdELECT binding assay
[2] = molecular target: T1, MASTL (Homo sapiens, UniProt Q96GX5); experiment: KiNativ, OCI cells live cell; assay type: cell-based
T1 sequence (Q96GX5 1-879): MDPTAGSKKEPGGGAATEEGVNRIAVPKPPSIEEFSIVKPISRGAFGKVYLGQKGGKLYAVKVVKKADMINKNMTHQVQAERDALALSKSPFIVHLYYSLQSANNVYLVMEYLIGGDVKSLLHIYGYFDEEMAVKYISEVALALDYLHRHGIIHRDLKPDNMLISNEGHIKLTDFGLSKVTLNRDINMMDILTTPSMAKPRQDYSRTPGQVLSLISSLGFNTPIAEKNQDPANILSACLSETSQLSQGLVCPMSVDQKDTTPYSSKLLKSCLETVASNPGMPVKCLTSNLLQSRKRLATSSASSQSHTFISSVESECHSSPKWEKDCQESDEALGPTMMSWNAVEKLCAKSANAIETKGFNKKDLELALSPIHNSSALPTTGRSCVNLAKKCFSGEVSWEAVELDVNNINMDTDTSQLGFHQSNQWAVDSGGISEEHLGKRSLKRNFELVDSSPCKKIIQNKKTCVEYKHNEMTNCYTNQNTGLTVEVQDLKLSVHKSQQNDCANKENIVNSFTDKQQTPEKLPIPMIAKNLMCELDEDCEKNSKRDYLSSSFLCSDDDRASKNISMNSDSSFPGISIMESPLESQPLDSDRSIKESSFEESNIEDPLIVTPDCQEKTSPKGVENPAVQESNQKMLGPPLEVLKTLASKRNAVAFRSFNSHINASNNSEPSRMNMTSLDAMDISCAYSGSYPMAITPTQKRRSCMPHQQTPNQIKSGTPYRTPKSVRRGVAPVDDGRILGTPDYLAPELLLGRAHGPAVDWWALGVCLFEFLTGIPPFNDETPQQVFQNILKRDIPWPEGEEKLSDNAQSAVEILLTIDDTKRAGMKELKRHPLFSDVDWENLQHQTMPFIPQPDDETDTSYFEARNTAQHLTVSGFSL

[3] = test system: PKCa, PKCg; experiment: KiNativ, OCI cells live cell; assay type: cell-based, human; conditions: labeling site Other, peptide NLIPMDPNGLSDPYVKLK
[4] = molecular target: T2, MAP2K4 (Homo sapiens, UniProt P45985); experiment: KiNativ, OCI cells live cell; assay type: cell-based; conditions: 2 h
T2 sequence (P45985 1-399): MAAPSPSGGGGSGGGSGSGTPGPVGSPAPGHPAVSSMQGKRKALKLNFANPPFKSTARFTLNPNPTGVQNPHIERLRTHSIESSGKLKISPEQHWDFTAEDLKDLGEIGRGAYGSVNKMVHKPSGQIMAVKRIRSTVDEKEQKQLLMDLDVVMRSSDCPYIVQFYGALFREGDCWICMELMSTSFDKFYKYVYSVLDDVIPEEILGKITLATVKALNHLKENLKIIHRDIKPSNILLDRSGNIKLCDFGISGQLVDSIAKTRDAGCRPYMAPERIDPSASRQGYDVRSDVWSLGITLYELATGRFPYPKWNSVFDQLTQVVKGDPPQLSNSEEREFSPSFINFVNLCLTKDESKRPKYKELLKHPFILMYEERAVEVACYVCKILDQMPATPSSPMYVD

[5] = molecular target: T3, JAK1 domain1 (Homo sapiens, UniProt P23458); experiment: KiNativ, OCI cells live cell; assay type: cell-based; conditions: labeling site Activation Loop, peptide QLASALSYLEDKDLVHGNVCTKNLLLAR
T3 construct: JAK1 domain1
T3 sequence (P23458 whole entry, the tested form may be a part): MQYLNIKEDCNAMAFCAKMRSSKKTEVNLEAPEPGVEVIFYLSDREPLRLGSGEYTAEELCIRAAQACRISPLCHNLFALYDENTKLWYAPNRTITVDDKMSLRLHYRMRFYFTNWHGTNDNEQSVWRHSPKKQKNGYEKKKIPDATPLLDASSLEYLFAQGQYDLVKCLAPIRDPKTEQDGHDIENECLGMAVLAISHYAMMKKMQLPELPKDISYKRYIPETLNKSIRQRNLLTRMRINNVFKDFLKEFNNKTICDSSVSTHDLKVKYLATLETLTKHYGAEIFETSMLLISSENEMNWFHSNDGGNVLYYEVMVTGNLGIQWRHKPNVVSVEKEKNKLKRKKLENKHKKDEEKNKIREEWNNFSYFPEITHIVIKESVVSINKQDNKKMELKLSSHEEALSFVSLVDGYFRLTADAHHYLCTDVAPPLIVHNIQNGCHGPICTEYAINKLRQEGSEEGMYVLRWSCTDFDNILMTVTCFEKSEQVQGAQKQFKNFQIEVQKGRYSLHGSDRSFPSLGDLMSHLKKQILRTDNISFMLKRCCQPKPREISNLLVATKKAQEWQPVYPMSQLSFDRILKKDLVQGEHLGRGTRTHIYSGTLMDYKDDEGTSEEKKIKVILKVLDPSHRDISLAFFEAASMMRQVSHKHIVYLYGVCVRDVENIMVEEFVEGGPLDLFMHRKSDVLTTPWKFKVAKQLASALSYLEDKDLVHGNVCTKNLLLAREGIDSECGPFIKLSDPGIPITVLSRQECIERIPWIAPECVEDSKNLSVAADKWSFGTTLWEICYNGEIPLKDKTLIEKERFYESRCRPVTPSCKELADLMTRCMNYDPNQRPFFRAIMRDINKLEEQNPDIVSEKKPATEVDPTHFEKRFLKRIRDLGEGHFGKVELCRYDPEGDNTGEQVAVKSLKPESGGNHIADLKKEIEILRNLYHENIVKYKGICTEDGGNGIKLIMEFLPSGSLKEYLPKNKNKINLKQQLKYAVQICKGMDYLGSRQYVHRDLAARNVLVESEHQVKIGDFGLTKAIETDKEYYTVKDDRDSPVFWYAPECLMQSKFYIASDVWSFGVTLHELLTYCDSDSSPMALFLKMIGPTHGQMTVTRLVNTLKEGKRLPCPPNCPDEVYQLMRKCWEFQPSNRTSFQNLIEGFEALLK

[6] = test system: CDK11, CDK8; experiment: KiNativ, OCI cells live cell; assay type: cell-based, human; conditions: labeling site Lys2, peptide DLKPANILVMGEGPER
[7] = molecular target: CK1a (Homo sapiens, UniProt P48729); experiment: KiNativ, OCI cells live cell; assay type: cell-based; conditions: 2 h, labeling site Lys2, peptide […]
[8] = test system: MAST1, MAST2; experiment: KiNativ, OCI cells live cell; assay type: cell-based, human; conditions: labeling site Lys2, peptide DLKPDNLLITSMGHIK
[9] = molecular target: T4, AURKA (Homo sapiens, UniProt O14965); experiment: KdELECT binding assay
T4 construct: purchased Eurofins DiscoverX
T4 sequence (O14965 whole entry): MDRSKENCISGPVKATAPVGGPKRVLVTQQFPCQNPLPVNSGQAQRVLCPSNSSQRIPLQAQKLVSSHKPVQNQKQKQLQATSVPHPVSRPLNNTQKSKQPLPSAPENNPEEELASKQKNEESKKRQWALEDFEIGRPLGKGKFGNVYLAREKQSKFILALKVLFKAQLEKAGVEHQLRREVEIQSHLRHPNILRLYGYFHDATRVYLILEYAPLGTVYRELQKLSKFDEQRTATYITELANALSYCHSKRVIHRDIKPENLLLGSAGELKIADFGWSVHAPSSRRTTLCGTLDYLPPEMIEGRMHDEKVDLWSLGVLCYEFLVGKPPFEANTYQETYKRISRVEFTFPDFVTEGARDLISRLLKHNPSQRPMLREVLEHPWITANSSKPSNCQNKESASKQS

[10] = molecular target: T5, FLT3 D835H (Homo sapiens, UniProt P36888, D835H); experiment: KdELECT binding assay
T5 construct: purchased Eurofins DiscoverX

[11] = molecular target: MAP2K1 (Homo sapiens, UniProt Q02750); experiment: KiNativ, OCI cells live cell; assay type: cell-based; conditions: 2 h, labeling site Lys2, peptide […]
Sequence of MAP2K1 (Q02750 whole entry): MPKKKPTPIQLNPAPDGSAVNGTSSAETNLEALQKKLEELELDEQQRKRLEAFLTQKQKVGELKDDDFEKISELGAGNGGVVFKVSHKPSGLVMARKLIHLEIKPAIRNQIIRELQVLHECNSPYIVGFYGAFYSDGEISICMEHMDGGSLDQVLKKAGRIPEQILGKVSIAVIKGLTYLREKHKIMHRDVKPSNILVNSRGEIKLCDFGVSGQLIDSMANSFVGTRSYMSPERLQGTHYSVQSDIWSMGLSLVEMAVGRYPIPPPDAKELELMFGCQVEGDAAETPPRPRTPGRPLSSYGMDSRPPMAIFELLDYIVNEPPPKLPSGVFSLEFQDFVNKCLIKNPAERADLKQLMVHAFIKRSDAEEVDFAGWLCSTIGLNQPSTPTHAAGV

[12] = molecular target: CaMK2g (Homo sapiens, UniProt Q13555); experiment: KiNativ, OCI cells live cell; assay type: cell-based; conditions: 2 h, labeling site Lys1, peptide […]
Sequence of CaMK2g (Q13555 whole entry): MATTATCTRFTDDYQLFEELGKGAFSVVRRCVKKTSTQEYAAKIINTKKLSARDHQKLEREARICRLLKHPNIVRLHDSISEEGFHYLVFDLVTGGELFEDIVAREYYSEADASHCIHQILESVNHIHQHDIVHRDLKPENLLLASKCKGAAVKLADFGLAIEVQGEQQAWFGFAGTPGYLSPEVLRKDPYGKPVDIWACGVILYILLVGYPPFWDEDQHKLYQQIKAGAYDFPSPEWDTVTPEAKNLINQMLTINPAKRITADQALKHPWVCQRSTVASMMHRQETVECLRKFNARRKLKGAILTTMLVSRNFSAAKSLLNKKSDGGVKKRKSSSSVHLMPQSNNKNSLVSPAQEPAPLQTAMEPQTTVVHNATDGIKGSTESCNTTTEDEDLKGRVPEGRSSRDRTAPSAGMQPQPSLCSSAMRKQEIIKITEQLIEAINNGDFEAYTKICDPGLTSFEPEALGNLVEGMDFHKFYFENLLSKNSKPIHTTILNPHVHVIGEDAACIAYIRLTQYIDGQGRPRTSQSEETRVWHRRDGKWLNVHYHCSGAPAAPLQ

[13] = molecular target: MST3 (Homo sapiens, UniProt Q9Y6E0); experiment: KiNativ, OCI cells live cell; assay type: cell-based; conditions: labeling site Lys2, peptide DIKAANVLLSEHGEVK
Sequence of MST3 (Q9Y6E0 whole entry, the tested form may be a part): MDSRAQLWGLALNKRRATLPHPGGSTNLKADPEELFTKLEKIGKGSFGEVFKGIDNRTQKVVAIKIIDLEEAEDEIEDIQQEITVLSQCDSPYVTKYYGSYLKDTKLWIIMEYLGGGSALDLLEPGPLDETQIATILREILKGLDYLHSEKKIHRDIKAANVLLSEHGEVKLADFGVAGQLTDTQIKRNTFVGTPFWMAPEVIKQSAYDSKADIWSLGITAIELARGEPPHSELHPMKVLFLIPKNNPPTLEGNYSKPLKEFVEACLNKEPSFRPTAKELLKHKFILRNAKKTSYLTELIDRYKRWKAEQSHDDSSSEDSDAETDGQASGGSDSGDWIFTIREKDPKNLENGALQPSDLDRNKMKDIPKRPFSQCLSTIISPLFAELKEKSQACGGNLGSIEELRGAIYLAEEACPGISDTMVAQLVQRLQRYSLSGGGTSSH

[14] = molecular target: T6, TYK2 domain2 (Homo sapiens, UniProt P29597); experiment: KiNativ, OCI cells live cell; assay type: cell-based
T6 construct: TYK2 domain2
T6 sequence (P29597 whole entry, the tested form may be a part): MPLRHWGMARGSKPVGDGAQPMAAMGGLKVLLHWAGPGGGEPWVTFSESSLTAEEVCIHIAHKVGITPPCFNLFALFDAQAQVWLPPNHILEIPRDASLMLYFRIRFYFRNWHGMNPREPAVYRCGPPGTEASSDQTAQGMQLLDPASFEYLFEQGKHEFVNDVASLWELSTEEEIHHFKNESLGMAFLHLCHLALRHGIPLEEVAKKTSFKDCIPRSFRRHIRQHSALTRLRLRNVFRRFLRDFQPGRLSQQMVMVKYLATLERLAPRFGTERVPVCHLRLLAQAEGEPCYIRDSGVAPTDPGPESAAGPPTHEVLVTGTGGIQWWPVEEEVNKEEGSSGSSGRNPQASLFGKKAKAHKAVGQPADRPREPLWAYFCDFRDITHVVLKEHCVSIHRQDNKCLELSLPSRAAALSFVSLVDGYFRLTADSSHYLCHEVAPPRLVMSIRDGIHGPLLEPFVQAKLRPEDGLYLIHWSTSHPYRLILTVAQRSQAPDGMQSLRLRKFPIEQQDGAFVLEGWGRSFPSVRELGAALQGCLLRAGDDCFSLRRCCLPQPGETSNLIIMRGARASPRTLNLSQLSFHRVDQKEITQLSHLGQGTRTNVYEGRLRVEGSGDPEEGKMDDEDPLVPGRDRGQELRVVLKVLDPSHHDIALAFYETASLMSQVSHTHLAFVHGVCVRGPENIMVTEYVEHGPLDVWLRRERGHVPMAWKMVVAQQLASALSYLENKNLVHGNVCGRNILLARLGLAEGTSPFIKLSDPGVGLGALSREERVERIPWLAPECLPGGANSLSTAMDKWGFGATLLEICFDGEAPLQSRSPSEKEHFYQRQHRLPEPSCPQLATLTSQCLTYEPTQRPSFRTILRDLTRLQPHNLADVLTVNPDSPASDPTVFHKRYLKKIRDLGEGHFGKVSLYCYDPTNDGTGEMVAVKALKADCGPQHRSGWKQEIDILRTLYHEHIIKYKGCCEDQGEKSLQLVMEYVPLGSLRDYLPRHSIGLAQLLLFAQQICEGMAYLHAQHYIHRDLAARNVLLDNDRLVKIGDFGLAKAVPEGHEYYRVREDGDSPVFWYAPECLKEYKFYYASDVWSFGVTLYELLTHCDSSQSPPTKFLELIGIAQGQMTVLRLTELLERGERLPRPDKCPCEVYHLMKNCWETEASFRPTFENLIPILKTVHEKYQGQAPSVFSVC

[15] = molecular target: CHK2 (Homo sapiens, UniProt O96017); experiment: KiNativ, OCI cells live cell; assay type: cell-based; conditions: 2 h
Sequence of CHK2 (O96017 whole entry): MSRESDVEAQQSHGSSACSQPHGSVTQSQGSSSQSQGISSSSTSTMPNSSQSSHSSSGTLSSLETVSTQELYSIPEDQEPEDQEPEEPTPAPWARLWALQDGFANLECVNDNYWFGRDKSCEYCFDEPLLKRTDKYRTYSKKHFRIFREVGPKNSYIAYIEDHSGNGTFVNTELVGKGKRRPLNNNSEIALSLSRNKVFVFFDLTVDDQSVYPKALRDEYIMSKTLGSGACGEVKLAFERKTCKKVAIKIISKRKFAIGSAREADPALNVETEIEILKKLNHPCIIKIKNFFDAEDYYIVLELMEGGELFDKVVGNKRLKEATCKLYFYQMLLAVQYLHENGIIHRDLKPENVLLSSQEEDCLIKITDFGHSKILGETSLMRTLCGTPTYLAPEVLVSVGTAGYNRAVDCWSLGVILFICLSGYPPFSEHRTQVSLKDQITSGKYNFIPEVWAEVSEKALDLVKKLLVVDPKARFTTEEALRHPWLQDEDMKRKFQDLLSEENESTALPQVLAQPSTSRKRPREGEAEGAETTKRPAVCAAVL

[16] = molecular target: AurB (Homo sapiens, UniProt Q96GD4); experiment: KiNativ, OCI cells live cell; assay type: cell-based; conditions: 2 h, labeling site Lys1, peptide […]
Sequence of AurB (Q96GD4 whole entry): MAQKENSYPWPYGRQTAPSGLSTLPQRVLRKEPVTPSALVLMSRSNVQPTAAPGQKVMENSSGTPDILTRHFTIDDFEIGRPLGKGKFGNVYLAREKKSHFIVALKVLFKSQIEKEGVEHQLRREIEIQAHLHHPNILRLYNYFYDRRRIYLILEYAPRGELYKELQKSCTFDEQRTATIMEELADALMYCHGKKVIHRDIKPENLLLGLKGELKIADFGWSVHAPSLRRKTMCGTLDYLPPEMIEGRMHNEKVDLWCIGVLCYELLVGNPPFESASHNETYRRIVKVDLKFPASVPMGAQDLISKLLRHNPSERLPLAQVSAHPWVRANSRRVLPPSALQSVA

In the case of `CN1CCN(Cc2ccc(Nc3ncc(Cl)c(Nc4ccccc4S(=O)(=O)N(C)C)n3)cc2)CC1` [TP-0903], the Kd [1] is reported as 5.6 nM, the Inhibition ([2]; labeling site ATP Loop, peptide GAFGKVYLGQK) is reported as 6.7% and the Inhibition ([2]; labeling site Lys1, peptide LYAVKVVK) is reported as 34.3%. For the same molecule, the Inhibition [3] was -15.0%, the inhibition at 0.1 µM ([4]; labeling site Activation Loop, peptide LCDFGISGQLVDSIAKTR) was -0.165% and the inhibition at 0.1 µM ([4]; labeling site Lys1, peptide MVHKPSGQIMAVKR) was 5.4%. For the same molecule, the inhibition at 0.1 µM ([4]; labeling site Lys2, peptide DIKPSNILLDR) was 3.5%, the Inhibition [5] was 87.3% and the Inhibition [6] was -14.9%. The inhibition at 0.1 µM [7] was -12.3%, the Inhibition [8] was -5.0% and the Kd [9] was < 5 nM. The Kd [10] was 1.9 nM, the inhibition at 0.1 µM [11] was 14.7% and the inhibition at 0.1 µM [12] was 31.6%. It also gave an Inhibition [13] of 35.2%, an Inhibition ([14]; labeling site Activation Loop, peptide IGDFGLAKAVPEGHEYYR) of -38.7% and an Inhibition ([14]; labeling site Lys1, peptide VSLYCYDPTNDGTGEMVAVKALK) of 21.1%. For the same molecule, the inhibition at 0.1 µM ([15]; labeling site Lys1, peptide VAIKIISK) was 37.7%, the inhibition at 0.1 µM ([15]; labeling site Lys2, peptide DLKPENVLLSSQEEDCLIK) was 37.1% and the inhibition at 0.1 µM [16] was 83%.
